Drawing on ChEMBL document CHEMBL1149474, “Synthesis and receptor binding properties of chimeric peptides containing a mu-opioid receptor ligand and nociceptin/orphanin FQ receptor ligand Ac-RYYRIK-amide” (Bioorg Med Chem Lett, 2006), this text covers IC50 for seven compounds.

The target of assay [1] is Nociceptin receptor (Homo sapiens, UniProt P41146). Nature of the assay: Displacement of [3H]NOC from human ORL1 receptor expressed in HEK293 cells. Format: cell-based.
For assay [2], the target named is Mu-type opioid receptor (Rattus norvegicus, UniProt P33535). Kind of assay: Displacement of [3H]DAMGO from mu opioid receptor in rat brain homogenate. The format is tissue-based. Background: Displacement assays read how much labelled ligand stays bound in the presence of the test substance.

Structures are written as SMILES. Non-standard residues stand in square brackets, D forms with d. Residues, ends and D or L forms follow the SMILES beside them. βAla = NCCC(=O)O

Nociceptin receptor, sequence (P41146 whole entry): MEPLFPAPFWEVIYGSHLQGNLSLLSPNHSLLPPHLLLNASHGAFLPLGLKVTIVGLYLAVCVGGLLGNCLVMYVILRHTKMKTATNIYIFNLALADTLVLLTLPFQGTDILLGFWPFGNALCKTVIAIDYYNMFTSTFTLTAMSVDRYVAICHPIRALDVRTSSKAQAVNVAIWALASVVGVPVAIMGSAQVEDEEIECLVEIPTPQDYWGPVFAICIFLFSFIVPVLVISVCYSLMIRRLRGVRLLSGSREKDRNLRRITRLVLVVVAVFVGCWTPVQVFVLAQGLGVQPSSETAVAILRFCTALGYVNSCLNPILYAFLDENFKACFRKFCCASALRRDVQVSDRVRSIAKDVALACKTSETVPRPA
Mu-type opioid receptor, sequence (P33535 whole entry): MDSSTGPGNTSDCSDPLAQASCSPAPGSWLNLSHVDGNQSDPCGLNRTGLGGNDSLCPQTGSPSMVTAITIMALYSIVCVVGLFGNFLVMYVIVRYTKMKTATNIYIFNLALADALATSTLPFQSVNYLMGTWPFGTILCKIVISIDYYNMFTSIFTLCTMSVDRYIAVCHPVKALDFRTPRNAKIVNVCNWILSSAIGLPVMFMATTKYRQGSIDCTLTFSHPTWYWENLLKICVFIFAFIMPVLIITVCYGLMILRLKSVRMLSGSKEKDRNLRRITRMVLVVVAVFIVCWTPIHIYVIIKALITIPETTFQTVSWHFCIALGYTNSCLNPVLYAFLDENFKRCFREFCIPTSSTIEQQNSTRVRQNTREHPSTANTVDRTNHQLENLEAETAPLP

For orientation: IC50 means the midpoint of a concentration-inhibition curve. A lower IC50 goes with inhibition by little substance. Turning to `C[C@@H](NC(=O)[C@@H](N)Cc1ccc(O)cc1)C(=O)N[C@@H](Cc1ccccc1)C(=O)NCC(=O)N[C@@H](Cc1ccc(O)cc1)C(=O)N1CCC[C@H]1C(=O)N[C@@H](CO)C(N)=O` [DERMORPHIN], the IC50 was above 10000 nM in assay [1] and 0.538 nM in assay [2].
Consider `CC[C@H](C)[C@H](NC(=O)[C@H](CCCN=C(N)N)NC(=O)[C@H](Cc1ccc(O)cc1)NC(=O)[C@H](Cc1ccc(O)cc1)NC(=O)[C@H](CCCN=C(N)N)NC(C)=O)C(=O)N[C@@H](CCCCN)C(N)=O`, for which, in assay [2], the IC50 is above 10000 nM.
With `N=C(N)NCCC[C@@H](NC(=O)[C@@H](N)Cc1ccc(O)cc1)C(=O)N[C@@H](Cc1ccccc1)C(=O)NCCC(N)=O` (H-Y[dR]F[βAla]-NH2), the IC50 in assay [1] was above 10000 nM; in assay [2], 1.18 nM.
As to `CC[C@H](C)[C@H](NC(=O)[C@H](CCCN=C(N)N)NC(=O)[C@H](Cc1ccc(O)cc1)NC(=O)[C@H](Cc1ccc(O)cc1)NC(=O)[C@H](CCCN=C(N)N)NC(C)=O)C(=O)N[C@@H](CCCCN)C(=O)N[C@@H](CCCCNC(=O)[C@H](CO)NC(=O)[C@@H]1CCCN1C(=O)[C@H](Cc1ccc(O)cc1)NC(=O)CNC(=O)[C@H](Cc1ccccc1)NC(=O)[C@@H](C)NC(=O)[C@@H](N)Cc1ccc(O)cc1)C(N)=O`, the IC50 in assay [1] came out at 11.6 nM.
As to `CC[C@H](C)[C@H](NC(=O)[C@H](CCCN=C(N)N)NC(=O)[C@H](Cc1ccc(O)cc1)NC(=O)[C@H](Cc1ccc(O)cc1)NC(=O)[C@H](CCCN=C(N)N)NC(C)=O)C(=O)N[C@@H](CCCCN)C(=O)N[C@@H](CCCCNC(=O)CCNC(=O)[C@H](Cc1ccccc1)NC(=O)[C@@H](CCCN=C(N)N)NC(=O)[C@@H](N)Cc1ccc(O)cc1)C(N)=O`, the IC50 in assay [1] is 0.789 nM; in assay [2], 2.76 nM.
For `CC[C@H](C)[C@H](NC(=O)[C@H](CCCN=C(N)N)NC(=O)[C@H](Cc1ccc(O)cc1)NC(=O)[C@H](Cc1ccc(O)cc1)NC(=O)[C@H](CCCN=C(N)N)NC(C)=O)C(=O)N[C@@H](CCCCN)C(=O)NCC(=O)NCC(=O)NCC(=O)N[C@@H](CCCCNC(=O)CNC(=O)CNC(=O)CNC(=O)CNC(=O)CNC(=O)CCNC(=O)[C@H](Cc1ccccc1)NC(=O)[C@@H](CCCN=C(N)N)NC(=O)[C@@H](N)Cc1ccc(O)cc1)C(N)=O`, in that order: 0.0803 nM and 0.0477 nM.
For `CC[C@H](C)[C@H](NC(=O)[C@H](CCCN=C(N)N)NC(=O)[C@H](Cc1ccc(O)cc1)NC(=O)[C@H](Cc1ccc(O)cc1)NC(=O)[C@H](CCCN=C(N)N)NC(C)=O)C(=O)N[C@@H](CCCCN)C(=O)NCC(=O)NCC(=O)NCC(=O)N[C@@H](CCCCNC(=O)CNC(=O)CNC(=O)[C@H](CO)NC(=O)[C@@H]1CCCN1C(=O)[C@H](Cc1ccc(O)cc1)NC(=O)CNC(=O)[C@H](Cc1ccccc1)NC(=O)[C@@H](C)NC(=O)[C@@H](N)Cc1ccc(O)cc1)C(N)=O`, in that order: 0.0464 nM and 0.00236 nM.
